Results as given in BindingDB's records for doi:10.1021/jm050825p (National Institute of Allergy and Infectious Diseases, 2006).

Columns and labels:
[1] = molecular target: T1, 3-oxoacyl-[acyl-carrier-protein] synthase 2 (Mycobacterium tuberculosis (strain ATCC 25618 / H37Rv), UniProt P9WQD7); assay: Inhibitory activity against KasB from Mycobacterium tuberculosis H37Rv
T1 sequence (P9WQD7 whole entry): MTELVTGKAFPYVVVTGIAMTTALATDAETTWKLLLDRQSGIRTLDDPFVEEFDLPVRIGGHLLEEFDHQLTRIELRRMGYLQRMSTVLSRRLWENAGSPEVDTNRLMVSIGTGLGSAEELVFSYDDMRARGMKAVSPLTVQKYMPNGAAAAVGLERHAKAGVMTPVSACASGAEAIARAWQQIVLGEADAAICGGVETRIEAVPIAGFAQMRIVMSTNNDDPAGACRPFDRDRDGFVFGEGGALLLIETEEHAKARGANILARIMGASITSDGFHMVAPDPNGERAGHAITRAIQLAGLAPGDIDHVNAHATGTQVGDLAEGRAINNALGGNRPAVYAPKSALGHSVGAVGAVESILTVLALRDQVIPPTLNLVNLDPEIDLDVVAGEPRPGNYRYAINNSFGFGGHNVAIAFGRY

[2] = molecular target: T2, 3-oxoacyl-[acyl-carrier-protein] synthase 3 (Mycobacterium tuberculosis (strain ATCC 25618 / H37Rv), UniProt P9WNG3); assay: Inhibitory activity against FabH from Mycobacterium tuberculosis H37Rv
T2 sequence (P9WNG3 whole entry): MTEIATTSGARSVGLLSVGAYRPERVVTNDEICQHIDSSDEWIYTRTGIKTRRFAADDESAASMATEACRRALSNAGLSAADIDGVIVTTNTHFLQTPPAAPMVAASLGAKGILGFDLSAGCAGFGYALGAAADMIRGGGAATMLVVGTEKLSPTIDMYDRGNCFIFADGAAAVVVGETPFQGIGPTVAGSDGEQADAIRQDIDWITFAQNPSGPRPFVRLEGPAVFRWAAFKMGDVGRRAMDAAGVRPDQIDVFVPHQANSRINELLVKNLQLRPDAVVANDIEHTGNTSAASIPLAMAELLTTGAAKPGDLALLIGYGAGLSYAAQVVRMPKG

[3] = molecular target: T3, 3-oxoacyl-[acyl-carrier-protein] synthase 3 (Escherichia coli, UniProt C3TDZ2); assay: Inhibitory activity against FabH from Escherichia coli ANSI
T3 sequence (C3TDZ2 whole entry): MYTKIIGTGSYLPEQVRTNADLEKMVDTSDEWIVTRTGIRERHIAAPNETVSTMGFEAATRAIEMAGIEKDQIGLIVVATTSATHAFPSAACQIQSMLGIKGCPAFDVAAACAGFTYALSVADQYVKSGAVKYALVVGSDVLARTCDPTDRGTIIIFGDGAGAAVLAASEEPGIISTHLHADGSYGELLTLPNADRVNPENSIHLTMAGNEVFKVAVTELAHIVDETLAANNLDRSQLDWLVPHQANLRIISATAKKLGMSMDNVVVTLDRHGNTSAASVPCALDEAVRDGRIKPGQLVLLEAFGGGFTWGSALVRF

[4] = molecular target: T4, 3-oxoacyl-[acyl-carrier-protein] synthase 1 (Escherichia coli (strain K12), UniProt P0A953); assay: Inhibitory activity against FabB from Escherichia coli ANSI
T4 sequence (P0A953 whole entry): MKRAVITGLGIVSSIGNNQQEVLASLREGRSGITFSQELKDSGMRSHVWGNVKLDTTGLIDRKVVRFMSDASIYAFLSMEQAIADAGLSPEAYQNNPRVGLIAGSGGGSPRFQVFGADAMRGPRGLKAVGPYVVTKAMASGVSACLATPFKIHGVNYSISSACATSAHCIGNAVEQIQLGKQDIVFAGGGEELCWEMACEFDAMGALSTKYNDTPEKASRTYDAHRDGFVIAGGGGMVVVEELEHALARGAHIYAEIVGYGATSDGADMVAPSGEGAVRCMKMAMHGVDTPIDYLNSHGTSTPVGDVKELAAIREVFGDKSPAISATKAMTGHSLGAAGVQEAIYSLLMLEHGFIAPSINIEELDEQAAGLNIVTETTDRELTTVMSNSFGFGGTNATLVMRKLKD

Structure (SMILES)	IC50 [1]	IC50 [2]	IC50 [3]	IC50 [4]
CC1C(=O)SC(C)(Cc2cccc(Cl)c2)C1=O (stereo unspecified) [5-(3-chlorobenzyl)-3,5-dimethyl-4-hydroxy-5H-thiophen-2-one]	> 1 mM	> 1 mM	> 1 mM	> 1 mM
COc1cc(CC2(C)SC(=O)C(C)C2=O)cc(OC)c1 (stereo unspecified) [3,5-dimethyl-5-(3,5-dimethoxybenzyl)-4-hydroxy-5H-thiophen-2-one]	> 1 mM	> 1 mM	> 1 mM	> 1 mM
CC(C)CCC1(C)SC(=O)C(C)C1=O (stereo unspecified) [3,5-dimethyl-4-hydroxy-5-(3-methylbutyl)-5H-thiophen-2-one]	> 1 mM	> 1 mM	> 1 mM	> 1 mM
Cc1ccc(CC2(C)SC(=O)C(C)C2=O)cc1 (stereo unspecified) [3,5-dimethyl-4-hydroxy-5-(4-methylbenzyl)-5H-thiophen-2-one]	> 1 mM	> 1 mM	> 1 mM	> 1 mM
CC1C(=O)SC(C)(Cc2ccc(C(C)(C)C)cc2)C1=O (stereo unspecified) [5-(4-tert-butylbenzyl)-3,5-dimethyl-4-hydroxy-5H-thiophen-2-one]	> 1 mM	> 0.1 mM	> 1 mM	> 1 mM
CC1C(=O)SC(C)(CC2CCCCC2)C1=O (stereo unspecified) [5-cyclohexylmethyl-3,5-dimethyl-4-hydroxy-5H-thiophen-2-one]	> 1 mM	> 1 mM	> 1 mM	> 1 mM
COc1cccc(CC2(C)SC(=O)C(C)C2=O)c1 (stereo unspecified) [4-Hydroxy-5-(3-methoxy-benzyl)-3,5-dimethyl-5H-thiophen-2-one]	> 1 mM	> 1 mM	> 1 mM	> 1 mM
CC1C(=O)SC(C)(CC2CCC2)C1=O (stereo unspecified) [5-cyclobutylmethyl-3,5-dimethyl-4-hydroxy-5H-thiophen-2-one]	> 1 mM	> 1 mM	> 1 mM	> 1 mM
CCCCC(CC)CC1(C)SC(=O)C(C)C1=O (stereo unspecified) [3,5-dimethyl-5-(2-ethylhexyl)-4-hydroxy-5H-thiophen-2-one]	> 1 mM	> 1 mM	> 1 mM	> 1 mM
